Source: the supplement of paper PMC10307832

How the values were obtained:
Assay in all cases: relative viability (nuclei count vs DMSO), 5 days (fraction); higher = more cells survive
HCC-366 = system: HCC-366
How it was run: (§1)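 Lung cancer cell lines were seeded in 1536-well plates and dosed by pin tool the next day, with either a single drug or a fixed anchor-drug dose combined with five library-drug doses (not always all listed) spaced in √10 steps. Five days later, one step fixed the cells and stained their nuclei (final 0.05% Triton X-100, 1% formaldehyde, 1 ug/ml Hoechst), and nuclei were counted on 4× images. Relative viability is the nuclei count in treated wells divided by the count in vehicle wells, and each value is the median of duplicate plates.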

NCI-H1395 = system: NCI-H1395
How it was run: as §1

HCC-78 = system: HCC-78
How it was run: as §1

NCI-H1623 = system: NCI-H1623
How it was run: as §1

A549 = system: A549
How it was run: as §1

EMC-BAC-2 = system: EMC-BAC-2
How it was run: as §1

LCLC-97TM1 = system: LCLC-97TM1
How it was run: as §1

Calu-6 = system: Calu-6
How it was run: as §1

EBC-1 = system: EBC-1
How it was run: as §1

IA-LM = system: IA-LM
How it was run: as §1

NCI-H1703 = system: NCI-H1703
How it was run: as §1

NCI-H1299 = system: NCI-H1299
How it was run: as §1

`Cc1cn(-c2cc(NC(=O)c3ccc(C)c(Nc4nccc(-c5cccnc5)n4)c3)cc(C(F)(F)F)c2)cn1` [Nilotinib] + N=C(N)NC(=N)NCCc1ccccc1 [Phenformin] (partner 250 µM) was tested, and the relative viability (HCC-366; first compound 0.001 µM) was 0.623, the relative viability (HCC-366; first compound 0.003162 µM) was 0.584 and the relative viability (HCC-366; first compound 0.01 µM) was 0.655. It also gave a relative viability (HCC-366; first compound 0.03162 µM) of 0.257, a relative viability (HCC-366; first compound 0.1 µM) of 0.555 and a relative viability (NCI-H1395; first compound 0.001 µM) of 0.453. It also gave a relative viability (NCI-H1395; first compound 0.003162 µM) of 0.403, a relative viability (NCI-H1395; first compound 0.01 µM) of 0.49 and a relative viability (NCI-H1395; first compound 0.03162 µM) of 0.43. It also gave a relative viability (NCI-H1395; first compound 0.1 µM) of 0.415, a relative viability (HCC-78; first compound 0.001 µM) of 0.786 and a relative viability (HCC-78; first compound 0.003162 µM) of 0.643. For the same compound, the relative viability (HCC-78; first compound 0.01 µM) was 0.706, the relative viability (HCC-78; first compound 0.03162 µM) was 0.637 and the relative viability (HCC-78; first compound 0.1 µM) was 0.636. It also gave a relative viability (NCI-H1623; first compound 0.001 µM) of 0.578, a relative viability (NCI-H1623; first compound 0.003162 µM) of 0.585 and a relative viability (NCI-H1623; first compound 0.01 µM) of 0.605. For the same compound, the relative viability (NCI-H1623; first compound 0.03162 µM) was 0.566, the relative viability (NCI-H1623; first compound 0.1 µM) was 0.601 and the relative viability (A549; first compound 0.001 µM) was 0.147. It also gave a relative viability (A549; first compound 0.003162 µM) of 0.27, a relative viability (A549; first compound 0.01 µM) of 0.274 and a relative viability (A549; first compound 0.03162 µM) of 0.172. The relative viability (A549; first compound 0.1 µM) was 0.14, the relative viability (EMC-BAC-2; first compound 0.001 µM) was 0.474 and the relative viability (EMC-BAC-2; first compound 0.003162 µM) was 0.553. For the same compound, the relative viability (EMC-BAC-2; first compound 0.01 µM) was 0.491, the relative viability (EMC-BAC-2; first compound 0.03162 µM) was 0.44 and the relative viability (EMC-BAC-2; first compound 0.1 µM) was 0.484. For the same compound, the relative viability (LCLC-97TM1; first compound 0.001 µM) was 0.393, the relative viability (LCLC-97TM1; first compound 0.003162 µM) was 0.468 and the relative viability (LCLC-97TM1; first compound 0.01 µM) was 0.467. The relative viability (LCLC-97TM1; first compound 0.03162 µM) was 0.426 and the relative viability (LCLC-97TM1; first compound 0.1 µM) was 0.453.
For `CN1CCN(CCOc2cc(OC3CCOCC3)c3c(Nc4c(Cl)ccc5c4OCO5)ncnc3c2)CC1` [Saracatinib] + COc1cc2c(Oc3ccc(NC(=O)C4(C(=O)Nc5ccc(F)cc5)CC4)cc3F)ccnc2cc1OCCCN1CCOCC1 [Foretinib] (partner 0.25 µM), the relative viability (Calu-6; first compound 0.02 µM) was 0.813, the relative viability (Calu-6; first compound 0.2 µM) was 0.579 and the relative viability (Calu-6; first compound 0.6325 µM) was 0.684. The relative viability (Calu-6; first compound 2 µM) was 0.581, the relative viability (HCC-366; first compound 0.02 µM) was 0.896 and the relative viability (HCC-366; first compound 0.6325 µM) was 0.844. For the same compound, the relative viability (HCC-366; first compound 2 µM) was 0.531, the relative viability (NCI-H1395; first compound 0.02 µM) was 1.08 and the relative viability (NCI-H1395; first compound 0.2 µM) was 0.908. It also gave a relative viability (NCI-H1395; first compound 0.6325 µM) of 1.03, a relative viability (NCI-H1395; first compound 2 µM) of 0.856 and a relative viability (EBC-1; first compound 0.02 µM) of 0.0938. For the same compound, the relative viability (EBC-1; first compound 0.2 µM) was 0.111, the relative viability (EBC-1; first compound 0.6325 µM) was 0.108 and the relative viability (EBC-1; first compound 2 µM) was 0.106. The relative viability (HCC-78; first compound 0.02 µM) was 0.534, the relative viability (HCC-78; first compound 0.6325 µM) was 0.678 and the relative viability (HCC-78; first compound 2 µM) was 0.413. It also gave a relative viability (NCI-H1623; first compound 0.02 µM) of 0.876, a relative viability (NCI-H1623; first compound 0.2 µM) of 0.723 and a relative viability (NCI-H1623; first compound 0.6325 µM) of 0.908. The relative viability (NCI-H1623; first compound 2 µM) was 0.681, the relative viability (IA-LM; first compound 0.02 µM) was 1.13 and the relative viability (IA-LM; first compound 0.2 µM) was 1.28. The relative viability (IA-LM; first compound 0.6325 µM) was 1.01, the relative viability (IA-LM; first compound 2 µM) was 0.912 and the relative viability (A549; first compound 0.02 µM) was 0.864. For the same compound, the relative viability (A549; first compound 0.6325 µM) was 0.8, the relative viability (A549; first compound 2 µM) was 0.841 and the relative viability (NCI-H1703; first compound 0.02 µM) was 0.38. For the same compound, the relative viability (NCI-H1703; first compound 0.2 µM) was 0.319, the relative viability (NCI-H1703; first compound 0.6325 µM) was 0.251 and the relative viability (NCI-H1703; first compound 2 µM) was 0.259. The relative viability (EMC-BAC-2; first compound 0.02 µM) was 1.01, the relative viability (EMC-BAC-2; first compound 0.2 µM) was 0.8 and the relative viability (EMC-BAC-2; first compound 0.6325 µM) was 1.01. The relative viability (EMC-BAC-2; first compound 2 µM) was 0.704, the relative viability (LCLC-97TM1; first compound 0.02 µM) was 1.06 and the relative viability (LCLC-97TM1; first compound 0.2 µM) was 0.763. For the same compound, the relative viability (LCLC-97TM1; first compound 0.6325 µM) was 0.96, the relative viability (LCLC-97TM1; first compound 2 µM) was 0.825 and the relative viability (NCI-H1299; first compound 0.02 µM) was 1.11. For the same compound, the relative viability (NCI-H1299; first compound 0.2 µM) was 1.08, the relative viability (NCI-H1299; first compound 0.6325 µM) was 1.21 and the relative viability (NCI-H1299; first compound 2 µM) was 1.14.
`CN1CCN(CCOc2cc(OC3CCOCC3)c3c(Nc4c(Cl)ccc5c4OCO5)ncnc3c2)CC1` [Saracatinib] + N=C(N)NC(=N)NCCc1ccccc1 [Phenformin] (partner 250 µM) showed a relative viability (HCC-366; first compound 0.02 µM) of 0.694, a relative viability (HCC-366; first compound 0.6325 µM) of 0.599 and a relative viability (HCC-366; first compound 2 µM) of 0.346. For the same compound, the relative viability (NCI-H1395; first compound 0.02 µM) was 0.434, the relative viability (NCI-H1395; first compound 0.2 µM) was 0.455 and the relative viability (NCI-H1395; first compound 0.6325 µM) was 0.474. For the same compound, the relative viability (NCI-H1395; first compound 2 µM) was 0.348, the relative viability (HCC-78; first compound 0.02 µM) was 0.704 and the relative viability (HCC-78; first compound 0.6325 µM) was 0.772. It also gave a relative viability (HCC-78; first compound 2 µM) of 0.554, a relative viability (NCI-H1623; first compound 0.02 µM) of 0.619 and a relative viability (NCI-H1623; first compound 0.2 µM) of 0.53. It also gave a relative viability (NCI-H1623; first compound 0.6325 µM) of 0.297, a relative viability (NCI-H1623; first compound 2 µM) of 0.395 and a relative viability (A549; first compound 0.02 µM) of 0.161. The relative viability (A549; first compound 0.2 µM) was 0.121, the relative viability (A549; first compound 0.6325 µM) was 0.156 and the relative viability (A549; first compound 2 µM) was 0.154. It also gave a relative viability (EMC-BAC-2; first compound 0.02 µM) of 0.521, a relative viability (EMC-BAC-2; first compound 0.2 µM) of 0.432 and a relative viability (EMC-BAC-2; first compound 0.6325 µM) of 0.418. The relative viability (EMC-BAC-2; first compound 2 µM) was 0.35, the relative viability (LCLC-97TM1; first compound 0.02 µM) was 0.461 and the relative viability (LCLC-97TM1; first compound 0.2 µM) was 0.399. For the same compound, the relative viability (LCLC-97TM1; first compound 0.6325 µM) was 0.469 and the relative viability (LCLC-97TM1; first compound 2 µM) was 0.413.
